Key:
[1] = test system: β-1,3-glucanase; experiment: β-1,3-glucanase elicitation in germinating mung beans after seed treatment (laminarin substrate); assay type: in vivo; settings: mung bean seeds, 0.5, 0.05 and 0.005 mg/seed; higher doses gave lower activities
Protocol: Enzyme activity measurements relate to the level of a given enzyme protein in the plant tissue. As an example of enhanced enzyme activity, β-1,3-glucanase was measured. The enzyme, β-1,3-glucanase, was assayed using laminarin (a soluble β-1,3-glucan) as substrate. Crude homogenates of the seedlings from treated seeds yielded the data in FIG. 1. Increased β-1,3-glucanase activity compared to controls (without seed treatment) was obtained in the micronutrient of the present invention treatments ten days following germination. Elicitation of mung beans seeds that were treated with the micronutrient of the present invention were compared to those treated with two types of elicitors. First, various concentrations of purified colloidal chitin/chitosan were used. […] Secondly, lower concentrations of the chitin oligosaccharide containing six glycan moieties, N-acetylchitohexaose were studied. The importance of the chitin oligosaccharide is that short chains of chitin have been found optimal in elicitation of many types of plants. […] Comparisons similar to those with chitin/chitosan could be made between the performance of 1 mg/seed micronutrient of the present invention and lower concentrations of the more optimal oligosaccharide.

[2] = assay type: physicochemical
From the text: Chitin/chitosan occurs naturally in a range from 100% chitin to 100% chitosan as a mixed polymer. […] Below is data showing that the micronutrient of the present invention outperforms chitin/chitosan as an elicitor of self-protecting enzymes.

Row | Compound | dose response relationship of β-1,3-glucanase specific activity [1] | water solubility [2]
1 | CC(=O)N[C@H]1[C@H](O[C@H]2[C@H](O)[C@@H](NC(C)=O)[C@H](O[C@H]3[C@H](O)[C@@H](NC(C)=O)C(O)O[C@@H]3CO)O[C@@H]2CO)O[C@H](CO)[C@@H](O[C@@H]2O[C@H](CO)[C@@H](O[C@@H]3O[C@H](CO)[C@@H](O[C@@H]4O[C@H](CO)[C@@H](O)[C@H](O)[C@H]4NC(C)=O)[C@H](O)[C@H]3NC(C)=O)[C@H](O)[C@H]2NC(C)=O)[C@@H]1O (some centres unmarked) [N-acetylchitohexaose] | negative | –
2 | chitin/chitosan | – | not water soluble

— patent US20080072494A1, “Micronutrient elicitor for treating nematodes in field crops” (priority 2006, published 2008)
